Source: patent EP0949243A1, “OPTICALLY ACTIVE METHOXYIMINOACETAMIDE DERIVATIVES, PROCESS FOR THE PREPARATION OF THEM, INTERMEDIATES THEREFOR, AND PESTICIDES CONTAINING THEM AS THE ACTIVE INGREDIENT” (MITSUBISHI CHEMICAL CORPORATION, priority 1996, dated 1998)
Like-named read-outs stand apart in the source and are kept apart here.

How the values were obtained:
[1] = system: wheat powdery mildew fungus (Erysiphe graminis); assay: Preventive activity on wheat powdery mildew (Test Example 1); type: in vivo; conditions: foliar application on wheat, wettable powder
[2] = system: wheat brown rust fungus (Puccinia recondita); assay: Preventive activity on wheat brown rust (Test Example 2); type: in vivo; conditions: 10 ppm, foliar application on wheat, wettable powder
CD rats (female) = assay: Oral acute toxicity test using rats (Test Example 3); conditions: for LC50 value: CD rats (female), single oral administration, suspended in tragacanth gum aqueous solution
Method: Each of the compound No. 2 and its racemate No. 2r was suspended in tragacanth gum aqueous solution and applied to CD rats (female) by single oral administration in a dosage of 300, 600, 1,200, 2,500 or 5,000 mg/kg to obtain its LC50 value.

[3] = system: wheat powdery mildew fungus (Erysiphe graminis f. sp. tritici); assay: Effect of combined application for controlling wheat powdery mildew (Test Example 5); type: in vivo; conditions: single chemical
[4] = system: wheat brown rust fungus (Puccinia recondita); assay: Effect of combined application for controlling wheat brown rust (Test Example 6); type: in vivo; conditions: single chemical
[5] = system: tomato late blight fungus (Phytophthora infestans); type: in vivo; conditions: single chemical
[6] = system: cucumber gray mold fungus (Botrytis cinerea); assay: Effect of combined application for controlling cucumber gray mold (Test Example 8); type: in vivo; conditions: single chemical, from diameter of lesion

CNC(=O)C(=NOC)c1ccccc1C=NOC(C)c1cccc(C(F)(F)F)c1 (racemic) [2r, N-methyl-2-[2-{1-(3-trifluoromethylphenyl)ethoxyiminomethyl}phenyl]-2-methoxyiminoacetamide]
Preventive value (%) ([1]; 2.0 ppm): 64%
Preventive value (%) ([1]; 4.0 ppm): 96%
Preventive value [2]: 32
LC50 value (CD rats (female)): 1,784 mg/kg
mortality (CD rats (female); single oral dosage of 300 mg/kg): no mortality
cases died (CD rats (female); single oral dosage of 600 mg/kg): 1/5
cases died (CD rats (female); single oral dosage of 1,200 mg/kg): 1/5
cases died (CD rats (female); single oral dosage of 2,500 mg/kg): 4/5
cases died (CD rats (female); single oral dosage of 5,000 mg/kg): 4/5

CC1(C)CCC(Cc2ccc(Cl)cc2)C1(O)Cn1cncn1 (racemic) [Known compound a, (1RS,5RS;1RS,5SR)-5-(4-chlorobenzyl)-2,2-dimethyl-1-(1H-1,2,4-triazol-1-ylmethyl)cyclopentanol]
Preventive value (%) ([3]; 0.2 ppm): 35%
Preventive value (%) ([3]; 1 ppm): 80%
Preventive value (%) ([4]; 0.2 ppm): 25%
Preventive value (%) ([4]; 1 ppm): 81%

CC(C)(C)C(O)(CCc1ccc(Cl)cc1)Cn1cncn1 (racemic) [Known compound b, (RS)-1-p-chlorophenyl-4,4-dimethyl-3-(1H-1,2,4-triazol-1-ylmethyl)pentan-3-ol]
Preventive value (%) ([3]; 0.2 ppm): 23%
Preventive value (%) ([3]; 1 ppm): 65%
Preventive value (%) ([4]; 0.2 ppm): 22%
Preventive value (%) ([4]; 1 ppm): 75%

CC(Cc1ccc(C(C)(C)C)cc1)CN1C[C@@H](C)O[C@@H](C)C1 (mixture of isomers) [Known compound c, (±)-cis-4-[3-(4-tert-butylphenyl)-2-methylpropyl]-2,6-dimethylmorpholine]
Preventive value (%) ([3]; 2.4 ppm): 18%
Preventive value (%) ([3]; 12 ppm): 50%
Preventive value (%) ([4]; 2.4 ppm): 0%
Preventive value (%) ([4]; 12 ppm): 0%

CNC(=O)C(=NOC)c1ccccc1C=NO[C@H](C)c1cccc(C(F)(F)F)c1 (single isomer, unassigned) [compound 1]
Preventive value (%) ([1]; 2.0 ppm): 6%
Preventive value (%) ([1]; 4.0 ppm): 51%
Preventive value [2]: 0

CNC(=O)C(=NOC)c1ccccc1C=NO[C@@H](C)c1cccc(C(F)(F)F)c1 (single isomer, unassigned) [compound 2]
Preventive value (%) ([1]; 2.0 ppm): 97%
Preventive value (%) ([1]; 4.0 ppm): 100%
Preventive value [2]: 99
Preventive value (%) ([3]; 0.2 ppm): 25%
Preventive value (%) ([3]; 1 ppm): 87%
Preventive value (%) ([4]; 0.2 ppm): 2%
Preventive value (%) ([4]; 1 ppm): 48%
Preventive value (%) ([5]; 0.4 ppm): 23%
Preventive value (%) ([5]; 2 ppm): 73%
Preventive value (%) ([5]; 10 ppm): 95%
Preventive value (%) ([6]; 0.4 ppm): 13%
Preventive value (%) ([6]; 2 ppm): 53%
Preventive value (%) ([6]; 10 ppm): 94%
LC50 value (CD rats (female)): ≥ 5,000 mg/kg

CCCN(CCOc1c(Cl)cc(Cl)cc1Cl)C(=O)n1ccnc1 [Known compound d, N-propyl-N-[2-(2,4,6-trichlorophenoxy)ethyl]imidazole-1-carboxamide]
Preventive value (%) ([4]; 2.4 ppm): 0%
Preventive value (%) ([4]; 12 ppm): 19%
Preventive value (%) ([5]; 0.2 ppm): 62%
Preventive value (%) ([5]; 1 ppm): 79%
Preventive value (%) ([5]; 5 ppm): 95%

O=[N+]([O-])c1cc(C(F)(F)F)c(Cl)c([N+](=O)[O-])c1Nc1ncc(C(F)(F)F)cc1Cl [Known compound f]
Preventive value (%) ([6]; 0.2 ppm): 52%
Preventive value (%) ([6]; 1 ppm): 68%
Preventive value (%) ([6]; 5 ppm): 98%
